Measured values from patent publication US8003105B2, “Method of treating cancer by co-administration of anticancer agents” (Astellas Pharma Inc., priority 2006, dated 2011).

How the values were obtained:
[1] = tested on: human lung carcinoma cell line Calu 6; experiment: Test Example 1: YM155 concomitant with docetaxel, Calu 6 xenograft in nude mice; format: in vivo; details: for Number of Complete Regressions: animals with CR / animals in group, during the experimental period to day 35; for Tumor Volume day 0: day 0 (first day of administration); for Tumor Volume day 0 / Body Weight day 35 / Tumor Volume day 35: mean ± SEM, n=8
Procedure: The dose levels are expressed in terms of YM155, the cationic moiety of the drug substance. Docetaxel hydrate (Taxotere® INJECTION) was purchased from Sanofi-Aventis Pharma Ltd. (West Lavel, FRA) and used as docetaxel.
YM155 was dissolved in and diluted with physiological saline in order to prepare dosing solutions (concentrations calculated using the following formulation: dose×mean body weight for each group/daily release volume). These solutions were prepared immediately before the implantation of an osmotic pump (Alzet® model 1007D Micro-Osmotic Pump, DURECT Co., CA, USA) into the test subjects. The solutions were then loaded into the pump. Docetaxel was diluted with physiological saline to prepare 2 mg/mL solutions immediately before administration.
The human lung carcinoma cell line Calu 6 (HTB-56, Lot No. 208280) was obtained from American Type Culture Collection (VA, USA). The cells were cultured at 37° C. in a 5% CO2 atmosphere in RPMI1640 medium supplemented with 10% heat-inactivated fetal bovine serum. The cells were collected with trypsin, suspended in PBS at 6×10^7 cells/mL, and then mixed with an equivalent volume of Matrigel® Basement Membrane Matrix (Becton Dickinson Co., Bedford, Mass., USA).
Five-week-old male nude mice (CAnN.Cg-Foxn1nu/CrlCrlj(nu/nu)) were purchased from Charles River Laboratories Japan, Inc (Kanagawa, Japan). They were maintained on a standard diet and water throughout the experiments under specific pathogen-free conditions. The cells were cultured in vitro and 3×10^6 cells/0.1 mL/mouse were grafted subcutaneously into the flank of 6-week-old nude mice. The mice with tumor volumes (length×width^2×0.5) of 97.3 to 182.7 mm^3 were divided into groups. This was done using SAS software in order to minimize intragroup and intergroup tumor volume variation.
The first day of administration was designated day 0, and observation continued until day 35. Each group (n=8) was treated as follows.
(§1) For 7-day sc continuous infusion, an osmotic pump containing either YM155 or physiological saline, was implanted in the dorsum of each animal while under anesthesia. The vehicle control group received a 7-day sc continuous infusion of physiological saline starting on day 0, and iv bolus injection of physiological saline on days 0, 4 and 8. The YM155 group received a 7-day sc continuous infusion of YM155 at 2 mg/kg/day starting on day 0, and iv bolus injection of physiological saline on days 0, 4 and 8. The docetaxel group received iv bolus injection of docetaxel at 20 mg/10 mL/kg on days 0, 4 and 8, as well as a 7-day sc continuous infusion of physiological saline starting on day 0. The combination group received both compounds instead of the vehicle, similarly to the YM155 and docetaxel groups.
Body weight and tumor diameter were measured every 3-4 days using calipers, and tumor volume was determined by calculating the volume of an ellipsoid using the formula: length×width^2×0.5. Antitumor activities are expressed as percent inhibition of tumor growth (% inh) and percent regression of the tumor (% reg). […] The percent regression of the tumor was calculated for all groups with observed tumor regression, using the following formula: 100×{1−(mean tumor volume of each group on day 35)/(mean tumor volume of each group on day 0)}. The number of Complete Regressions (CRs) in all groups were checked during the experimental period. The CR is defined by instances in which the tumor burden falls bellow the limit of palpation.
Values are expressed as the mean± the standard error of the mean (SEM). Tumor volume and body weight on day 35 were compared between each single compound group and combination group using the Student's t-test. P values of less than 5% are considered significant. SAS software was used for data processing.

[2] = tested on: human lung carcinoma cell line Calu 6; experiment: Test Example 2A: YM155 followed by docetaxel (sequential), Calu 6 xenograft in nude mice; format: in vivo; details: for Number of CRs: animals with complete regression / animals in group; for Tumor Volume day 0 / Body Weight day 35 / Tumor Volume day 35: mean ± SEM, n=8
Procedure: (§2) The following study was conducted in the same way as Test Example 1 except for the administration timing.
A) The first day of administration was designated day 0, and observation continued until day 35. Each group (n=8) was treated as follows.
For 7-day sc continuous infusion, an osmotic pump containing either YM155 or physiological saline, was implanted in the dorsum of each animal while under anesthesia. The vehicle control group received a 7-day sc continuous infusion of physiological saline starting on day 0, and iv bolus injection of physiological saline on days 7, 11 and 15. The YM155 group received a 7-day sc continuous infusion of YM155 at 2 mg/kg/day starting on day 0 and iv bolus injection of physiological saline on days 7, 11 and 15. The docetaxel group received iv bolus injection of docetaxel at 20 mg/10 mL/kg on days 7, 11 and 15, as well as a 7-day sc continuous infusion of physiological saline starting on day 0. The combination group received both compounds instead of the vehicle, similarly to the YM155 and docetaxel groups. Results

[3] = tested on: human lung carcinoma cell line Calu 6; experiment: Test Example 2B: docetaxel followed by YM155 (sequential), Calu 6 xenograft in nude mice; format: in vivo; details: for Number of CRs: animals with complete regression / animals in group; for Tumor Volume day 0 / Body Weight day 35 / Tumor Volume day 35: mean ± SEM, n=8
Procedure: as §2
B) The first day of administration was designated day 0, and observation continued until day 35. Each group (n=8) was treated as follows.
as §1, with “day 8,” for “day 0,”, “day 8.” for “day 0.”, “groups. Results” for “groups.”

[4] = tested on: lymphoma WSU-DLCL-2 cells; experiment: Test Example 6: YM155 followed by R-ICE, WSU-DLCL-2 xenograft; format: in vivo, nude mice
Procedure: The study was conducted in the same way as Test Example 5 according to the following dosage regimen.
YM155 group YM155 2 mg/kg/day (7-day sc continuous infusion)
RICE group RTX 50 mg/kg, i.v. (day 6 and 8)+(IFM 400 mg/kg+CBDCA 30 mg/kg), i.v (day 9)+ETP 10 mg/kg, i.v (day 8, 9 and 10)
YM155→RICE group YM155 2 mg/kg/day (7-day sc continuous infusion)+RTX 50 mg/kg, i.v. (day 6 and 8)+(IFM 400 mg/kg+CBDCA 30 mg/kg), i.v. (day 9)+ETP 10 mg/kg, i.v. (day 8, 9 and 10)
In the table, values are expressed as the mean±SEM (n=8, RICE group: n=6). ¶¶: P<0.01 versus an RICE group, ##: P<0.01 versus YM155 group, N.S.: no significance from RICE group (Student's t-test).

[5] = tested on: human NSCLC xenograft models; details: NSCLC xenograft model; Ref. 15; cited from earlier work
[6] = day 35, YM155 2 mg/kg/day 7-day sc infusion from day 0, docetaxel 20 mg/kg/day iv day 0, 4, 8
[7] = day 35, YM155 2 mg/kg/day 7-day sc infusion from day 0, docetaxel 20 mg/kg/day iv day 7, 11, 15
[8] = day 35, docetaxel 20 mg/kg/day iv day 0, 4, 8, YM155 2 mg/kg/day 7-day sc infusion from day 8

CC(=O)O[C@@]12CO[C@@H]1C[C@H](O)[C@@]1(C)C(=O)[C@H](O)C3=C(C)[C@@H](OC(=O)[C@H](O)[C@@H](NC(=O)OC(C)(C)C)c4ccccc4)C[C@@](O)([C@@H](OC(=O)c4ccccc4)[C@H]21)C3(C)C [Docetaxel, Docetaxel hydrate]
Number of Complete Regressions [1]: 0/8 | Tumor Volume day 0 [1]: 121.4 ± 7.0 mm^3 | Antitumor Activity, percent inhibition of tumor growth (% inh) [1, 6]: > 100% | Antitumor Activity, percent regression of the tumor (% reg) [1, 6]: 52% | Body Weight day 35 [1, 6]: 24.95 ± 0.54 ^ g | Tumor Volume day 35 [1, 6]: 58.0 ± 20.4 mm^3 | Number of CRs [2]: 0/8 | Tumor Volume day 0 [2]: 209.1 ± 18.3 mm^3 | Antitumor Activity, percent inhibition of tumor growth (% inh) [2, 7]: > 100% | Antitumor Activity, percent regression of the tumor (% reg) [2, 7]: 10% | Body Weight day 35 [2, 7]: 21.03 ± 0.94 g | Tumor Volume day 35 [2, 7]: 188.8 ± 29.1 mm^3 | Number of CRs [3]: 0/8 | Tumor Volume day 0 [3]: 210.0 ± 22.6 mm^3 | Antitumor Activity, percent inhibition of tumor growth (% inh) [3, 8]: > 100% | Antitumor Activity, percent regression of the tumor (% reg) [3, 8]: 68% | Body Weight day 35 [3, 8]: 23.84 ± 1.01 ^ g | Tumor Volume day 35 [3, 8]: 67.2 ± 15.1 mm^3

COCCn1c2c([n+](Cc3cnccn3)c1C)C(=O)c1ccccc1C2=O.[Br-] [YM155, 1-(2-methoxyethyl)-2-methyl-4,9-dioxo-3-(pyrazin-2-ylmethyl)-4,9-dihydro-1H-naphtho[2,3-d]imidazol-3-ium bromide]
Number of Complete Regressions [1]: 0/8 | Tumor Volume day 0 [1]: 121.4 ± 6.9 mm^3 | Antitumor Activity, percent inhibition of tumor growth (% inh) [1, 6]: 99% | Body Weight day 35 [1, 6]: 26.13 ± 0.56 ^ g | Tumor Volume day 35 [1, 6]: 142.3 ± 16.9 mm^3 | Number of CRs [2]: 0/8 | Tumor Volume day 0 [2]: 208.5 ± 18.6 mm^3 | Body Weight day 35 [2, 7]: 26.25 ± 0.25 g | Tumor Volume day 35 [2, 7]: 251.8 ± 50.7 mm^3 | Number of CRs ([4]; animals with complete regression / animals in group): 0/8 | Tumor Volume day 0 ([4]; day 0, mean ± SEM, n=8, RICE group n=6): 405.1 ± 13.8 mm^3 | Antitumor Activity, percent inhibition of tumor growth (% inh) ([4]; day 28, YM155 2 mg/kg/day 7-day sc infusion, RICE given day 6-10): 45% | Body Weight day 28 ([4]; day 28, YM155 2 mg/kg/day 7-day sc infusion, RICE given day 6-10, mean ± SEM): 28.81 ± 0.23 g | Tumor Volume day 28 ([4]; day 28, YM155 2 mg/kg/day 7-day sc infusion, RICE: RTX 50 mg/kg iv day 6, 8 + IFM 400 mg/kg + CBDCA 30 mg/kg iv day 9 + ETP 10 mg/kg iv day 8-10, mean ± SEM): 1181.3 ± 174.7 mm^3 | Number of CRs [3]: 0/8 | Tumor Volume day 0 [3]: 206.9 ± 21.8 mm^3 | Body Weight day 35 [3, 8]: 24.80 ± 1.01 ^ g | Tumor Volume day 35 [3, 8]: 1437.5 ± 225.5 mm^3 | anti-tumor activity of 7-day continuous infusion [5]: induced tumor regression
